The assay has as its target T1, human CCK-B R (Homo sapiens, UniProt P32239).
T1 construct: expressed in transfected cells
T1 sequence (P32239 1-447): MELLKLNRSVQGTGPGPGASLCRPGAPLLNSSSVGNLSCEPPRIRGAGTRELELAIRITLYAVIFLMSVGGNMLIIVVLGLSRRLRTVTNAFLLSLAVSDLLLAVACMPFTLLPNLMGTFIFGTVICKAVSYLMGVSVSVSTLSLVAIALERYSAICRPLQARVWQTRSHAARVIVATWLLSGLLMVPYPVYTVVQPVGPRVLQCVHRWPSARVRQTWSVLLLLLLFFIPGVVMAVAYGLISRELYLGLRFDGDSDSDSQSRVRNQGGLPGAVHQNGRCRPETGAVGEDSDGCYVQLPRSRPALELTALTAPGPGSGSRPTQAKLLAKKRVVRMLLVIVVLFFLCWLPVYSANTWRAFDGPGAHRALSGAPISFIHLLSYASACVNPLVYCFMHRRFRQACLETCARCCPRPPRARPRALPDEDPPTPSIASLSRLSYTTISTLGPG
Description: Human CCK-B receptor efficacy assay (AlphaScreen SureFire p-ERK). It is filed as cell-based. As to conditions: read-out: hCCK-B R EC50. In general terms: Alpha assays give light when donor and acceptor beads are brought close together.

pEC50: −log10 of the molar value. Where two headings read alike, the source gives them in different places. Square brackets hold non-standard residues; d marks the D form. Peptide text beside a SMILES is read from it. AEEA = NCCOCCOCC(=O)O

Description: CCK-B Receptor (CCK-B R) Efficacy Assay:
In vitro effects of peptide conjugates of the invention were estimated by measuring p-ERK (using the AlphaScreen™ SureFire p-ERK assay) in HEK293 cells stably expressing the human and mouse CCK-B R (high-affinity Gastrin receptor), respectively. The Gastrin receptor efficacy assays (AlphaScreen™ SureFire p-ERK assay) were performed as follows:
The CCK-B R expressing cells in question were seeded at 20,000 cells/well in 100 μl growth medium [DMEM, 10% FCS, Penicillin (100 IU/ml), Streptomycin (100 μg/ml)] in a 96-well plate coated with poly-D-lysine. The cells were incubated in an incubator (37° C., 5% 002) for two days.
The growth medium was changed to 80 μl of serum-free medium [DMEM, Penicillin (100 IU/ml), Streptomycin (100 μg/ml)] per well, and incubation of the cells was continued for 19 hours in the incubator (37° C., 5% CO2).
After 19 hours, 20 μl of serum-free medium containing one of 5 different concentrations of peptide conjugate was added (performed in triplicate for each concentration), and the cells were incubated for 5 min. at room temperature. • 2. The stimulation medium was discarded by quickly turning the plate upside down, and 60 μl 1× lysis buffer (from the SureFire assay kit) was added per well. • 3. The plate was shaken on a plate-shaker for 5 min and then placed on ice. • 4. SureFire P-ERK assay: 4 μl of each supernatant was transferred to a 384 well proxiplate (Perkin Elmer). • 5. 4 μl of each of the two control lysates (unstimulated and stimulated) were added to the proxiplate in duplicate. • 6. […] 7 μl of the latter reaction buffer+activation buffer+beads per well were added in the proxiplate, the mix being resuspended carefully before addition to the wells. • 7. The plate was incubated for 2 hours in a dark box in a 22° C. incubator. • 8. The plate was analyzed on an Envision™ light-emission plate reader (Perkin-Elmer) using the appropriate reading program (Perkin-Elmer).

For orientation: pEC50 means the negative decadic logarithm of the EC50, by convention in mol/L. As for `CCCCCCCCCCCCCCCC(=O)N[C@@H](CCC(=O)NCCCC[C@H](NC(=O)[C@H](C)NC(=O)[C@H](C)NC(=O)[C@H](CCC(N)=O)NC(=O)CNC(=O)[C@H](CCC(=O)O)NC(=O)[C@H](CC(C)C)NC(=O)[C@H](Cc1ccc(O)cc1)NC(=O)[C@H](CO)NC(=O)[C@H](CO)NC(=O)[C@@H](NC(=O)[C@H](CC(=O)O)NC(=O)[C@H](CO)NC(=O)[C@@H](NC(=O)[C@H](Cc1ccccc1)NC(=O)[C@@H](NC(=O)CNC(=O)[C@H](CCC(=O)O)NC(=O)[C@H](C)NC(=O)[C@@H](N)Cc1c[nH]cn1)[C@@H](C)O)[C@@H](C)O)C(C)C)C(=O)N[C@@H](CCC(=O)O)C(=O)N[C@@H](Cc1ccccc1)C(=O)N[C@H](C(=O)N[C@@H](C)C(=O)N[C@@H](Cc1c[nH]c2ccccc12)C(=O)N[C@@H](CC(C)C)C(=O)N[C@H](C(=O)N[C@@H](CCCCN)C(=O)NCC(=O)N[C@@H](CCCNC(=N)N)C(=O)NCC(=O)NCCOCCOCC(=O)NCCOCCOCC(=O)N[C@@H](Cc1ccc(O)cc1)C(=O)NCC(=O)N[C@@H](Cc1c[nH]c2ccccc12)C(=O)N[C@@H](CC(C)C)C(=O)N[C@@H](CC(=O)O)C(=O)N[C@@H](Cc1ccccc1)C(N)=O)C(C)C)[C@@H](C)CC)C(=O)O` [Compound 109, [Lys(Hexadecanoyl-isoGlu)26]GLP-1(7-37)-Peg3-Peg3-[Leu4]Gastrin6], the pEC50 (Table 3) was 7.59.

For `CCCCCCCCCCCCCCCC(=O)N[C@@H](CCC(=O)NCCCC[C@H](NC(=O)[C@H](C)NC(=O)[C@H](C)NC(=O)[C@H](CCC(N)=O)NC(=O)CNC(=O)[C@H](CCC(=O)O)NC(=O)[C@H](CC(C)C)NC(=O)[C@H](Cc1ccc(O)cc1)NC(=O)[C@H](CO)NC(=O)[C@H](CO)NC(=O)[C@@H](NC(=O)[C@H](CC(=O)O)NC(=O)[C@H](CO)NC(=O)[C@@H](NC(=O)[C@H](Cc1ccccc1)NC(=O)[C@@H](NC(=O)CNC(=O)[C@H](CCC(=O)O)NC(=O)[C@H](C)NC(=O)[C@@H](N)Cc1c[nH]cn1)[C@@H](C)O)[C@@H](C)O)C(C)C)C(=O)N[C@@H](CCC(=O)O)C(=O)N[C@@H](Cc1ccccc1)C(=O)N[C@H](C(=O)N[C@@H](C)C(=O)N[C@@H](Cc1c[nH]c2ccccc12)C(=O)N[C@@H](CC(C)C)C(=O)N[C@H](C(=O)N[C@@H](CCCNC(=N)N)C(=O)NCC(=O)N[C@@H](CCCNC(=N)N)C(=O)NCC(=O)NCCOCCOCC(=O)NCCOCCOCC(=O)N[C@@H](Cc1ccc(O)cc1)C(=O)NCC(=O)N[C@@H](Cc1c[nH]c2ccccc12)C(=O)N[C@@H](CC(C)C)C(=O)N[C@@H](CC(=O)O)C(=O)N[C@@H](Cc1ccccc1)C(N)=O)C(C)C)[C@@H](C)CC)C(=O)O` [Compound 107, [Arg34,Lys(Hexadecanoyl-isoGlu)26]GLP-1(7-37)-Peg3-Peg3-[Leu4]Gastrin6], the pEC50 (Table 3) is 7.54. On the same count and under the same terms, the result for `CC[C@H](C)[C@H](NC(=O)[C@H](Cc1ccccc1)NC(=O)[C@H](CCC(=O)O)NC(=O)[C@H](CCCCN)NC(=O)[C@H](C)NC(=O)[C@H](C)NC(=O)[C@H](CCC(N)=O)NC(=O)CNC(=O)[C@H](CCC(=O)O)NC(=O)[C@H](CC(C)C)NC(=O)[C@H](Cc1ccc(O)cc1)NC(=O)[C@H](CO)NC(=O)[C@H](CO)NC(=O)[C@@H](NC(=O)[C@H](CC(=O)O)NC(=O)[C@H](CO)NC(=O)[C@@H](NC(=O)[C@H](Cc1ccccc1)NC(=O)[C@@H](NC(=O)CNC(=O)[C@H](CCC(=O)O)NC(=O)[C@H](C)NC(=O)[C@@H](N)Cc1c[nH]cn1)[C@@H](C)O)[C@@H](C)O)C(C)C)C(=O)N[C@@H](C)C(=O)N[C@@H](Cc1c[nH]c2ccccc12)C(=O)N[C@@H](CC(C)C)C(=O)N[C@H](C(=O)N[C@@H](CCCNC(=N)N)C(=O)NCC(=O)N[C@@H](CCCNC(=N)N)C(=O)NCC(=O)NCCOCCOCC(=O)NCCOCCOCC(=O)N[C@@H](Cc1ccc(O)cc1)C(=O)NCC(=O)N[C@@H](Cc1c[nH]c2ccccc12)C(=O)N[C@@H](CC(C)C)C(=O)N[C@@H](CC(=O)O)C(=O)N[C@@H](Cc1ccccc1)C(N)=O)C(C)C` [Compound 113, [Arg34]GLP-1(7-37)-Peg3-Peg3-[Leu4]Gastrin6] reads 7.62. As to `CC[C@H](C)[C@H](NC(=O)[C@H](Cc1ccccc1)NC(=O)[C@H](CC(C)C)NC(=O)[C@H](CCCNC(=N)N)NC(=O)[C@@H](NC(=O)[C@H](C)NC(=O)[C@H](CCC(=O)O)NC(=O)[C@H](CCC(=O)O)NC(=O)[C@H](CCC(=O)O)NC(=O)[C@H](CC(C)C)NC(=O)[C@H](Cc1ccc(O)cc1)NC(=O)[C@H](CCCCN)NC(=O)[C@H](CO)NC(=O)[C@H](CC(C)C)NC(=O)[C@H](CC(=O)O)NC(=O)[C@H](CO)NC(=O)[C@@H](NC(=O)[C@H](Cc1ccccc1)NC(=O)[C@@H](NC(=O)CNC(=O)[C@H](CCC(=O)O)NC(=O)CNC(=O)[C@@H](N)Cc1c[nH]cn1)[C@@H](C)O)[C@@H](C)O)C(C)C)C(=O)N[C@@H](CCC(=O)O)C(=O)N[C@@H](Cc1ccccc1)C(=O)N[C@@H](CC(C)C)C(=O)N[C@@H](CCCCN)C(=O)NCCOCCOCC(=O)NCCOCCOCC(=O)N[C@@H](Cc1ccc(O)cc1)C(=O)NCC(=O)N[C@@H](Cc1ccccc1)C(=O)N[C@@H](CC(C)C)C(=O)N[C@@H](CC(=O)O)C(=O)N[C@@H](Cc1ccccc1)C(N)=O` [Compound 89, [Leu14, Phe25,Tyr13]Exendin-4(1-27)-Peg3-Peg3-[Leu4, Phe3]Gastrin6] (H-HGEGTFTSDLSKYLEEEAVRLFIEFLK[AEEA][AEEA]YGFLDF-NH2), the pEC50 (Table 2) was 5.92. `CCCCCCCCCCCCCCCC(=O)N[C@@H](CCC(=O)NCCCC[C@H](NC(=O)[C@@H](NC(=O)[C@H](CC(C)C)NC(=O)[C@H](Cc1c[nH]c2ccccc12)NC(=O)[C@H](C)NC(=O)[C@@H](NC(=O)[C@H](Cc1ccccc1)NC(=O)[C@H](CCC(=O)O)NC(=O)[C@H](CCCCN)NC(=O)[C@H](C)NC(=O)[C@H](C)NC(=O)[C@H](CCC(N)=O)NC(=O)CNC(=O)[C@H](CCC(=O)O)NC(=O)[C@H](CC(C)C)NC(=O)[C@H](Cc1ccc(O)cc1)NC(=O)[C@H](CO)NC(=O)[C@H](CO)NC(=O)[C@@H](NC(=O)[C@H](CC(=O)O)NC(=O)[C@H](CO)NC(=O)[C@@H](NC(=O)[C@H](Cc1ccccc1)NC(=O)[C@@H](NC(=O)CNC(=O)[C@H](CCC(=O)O)NC(=O)[C@H](C)NC(=O)[C@@H](N)Cc1c[nH]cn1)[C@@H](C)O)[C@@H](C)O)C(C)C)[C@@H](C)CC)C(C)C)C(=O)NCC(=O)N[C@@H](CCCNC(=N)N)C(=O)NCC(=O)NCCOCCOCC(=O)NCCOCCOCC(=O)N[C@@H](Cc1ccc(O)cc1)C(=O)NCC(=O)N[C@@H](Cc1c[nH]c2ccccc12)C(=O)N[C@@H](CC(C)C)C(=O)N[C@@H](CC(=O)O)C(=O)N[C@@H](Cc1ccccc1)C(N)=O)C(=O)O` [Compound 106, [Lys(Hexadecanoyl-isoGlu)34]GLP-1(7-37)-Peg3-Peg3-[Leu4]Gastrin6]: the pEC50 (Table 3) was 7.74.
